Here are results for 2 molecules from ChEMBL document CHEMBL1151216, “New constituents of Artemisia monosperma” (2004).

The subject of assay [1] is Staphylococcus aureus. Description: Antibacterial activity against methicillin-resistant Staphylococcus aureus. It counts as functional.
Assay [2] deals with Staphylococcus aureus. Kind of assay: Antibacterial activity against multidrug-resistant Staphylococcus aureus. In kind it is functional.

Broadly, the MIC is the smallest concentration in the dilution series that meets the test's criterion for growth inhibition. On to `C=C[C@@H](O)C#CC#C[C@H](O)CCO`, for which the MIC in assay [1] and in assay [2] was over 128 µg/mL in each case.
With `CC1=C2[C@H](O)[C@H](C(C)C)CC[C@@]2(C)[C@H](O)C[C@H]1O` (relative stereo), the MIC in assay [1] and in assay [2] was over 128 µg/mL each time.
